# From US12208110B2 (priority 2020, dated 2025)
# Where two headings read alike, the source gives them in different places.
# Columns and labels:
# Format in all cases: cell-based
# [1] = system: RSV-Fluc (Recombinant Respiratory Syncytial virus strain A2 containing the firefly luciferase reporter); experiment: microbe, parasite or virus in culture; details: human respiratory syncytial virus, NHBE, 72 h, read-out: RSV-Fluc EC50 (nM, NHBE)
# SARS-CoV-2 = experiment: microbe, parasite or virus in culture; details: Severe acute respiratory syndrome coronavirus 2, 48 h
# [2] = MT4 cytotoxicity analysis (CellTiter-Glo); details: human
# Description: Example 79: MT4 Cytotoxicity Analysis
# 3-fold serially diluted compound in DMSO, ranging from 2.5 uM to 10 mM, were added by acoustic transfer (Echo) in quadruplicate into black 384-well plates at 200 nl/well. After compound addition, 40 ul MT-4 cells at 80,000/ml were added to each well using a MicroFlo liquid dispenser (BioTek, Winooski, VT) and the cells were cultured for five days at 37° C. Following the incubation, cell viability was determined by adding 35 μL of CellTiter-Glo viability reagent and mixed thoroughly using ViaFlo 384 well workstation. The mixture was incubated for at least 10 minutes at 25° C., and the luminescence signal was quantified on an EnVision plate reader.
# [3] = MT-4 cells, five days, CellTiter-Glo, read-out: MT4 CC50
structure (smiles),measurement,setting,value
"CCCCCCCCCCCCCCCCCCOC[C@H](COP(=O)(O)OC[C@H]1O[C@@](C#N)(c2ccc3c(N)ncnn23)[C@H](O)[C@@H]1O)NC(=O)c1ccccc1C(=O)O [Example 14, 2-(((2R)-1-(((((2R,3S,4R,5R)-5-(4-aminopyrrolo[2,1-f][1,2,4]triazin-7-yl)-5-cyano-3,4-dihydroxytetrahydrofuran-2-yl)methoxy)(hydroxy)phosphoryl)oxy)-3-(octadecyloxy)propan-2-yl)carbamoyl)benzoic acid]",EC50,[1],53 nM
same,EC50,SARS-CoV-2,700 nM
same,CC50 at 5 days,[2]; MT4 CC50 (nM),26000 nM
"CCCCCCCCCCCCCCCCCCC[C@H](COCc1ccc(C#N)cc1F)OP(=O)(O)OC[C@H]1O[C@@](C#N)(c2ccc3c(N)ncnn23)[C@H](O)[C@@H]1O [Example 69, ((2R,3S,4R,5R)-5-(4-aminopyrrolo[2,1-f][1,2,4]triazin-7-yl)-5-cyano-3,4-dihydroxytetrahydrofuran-2-yl)methyl ((R)-1-((4-cyano-2-fluorobenzyl)oxy)henicosan-2-yl) hydrogen phosphate]",EC50,[1],400 nM
same,EC50,SARS-CoV-2,10000 nM
same,CC50 at 5 days,[2]; MT4 CC50 (nM),48000 nM
"CCCCCCCCCCCCCCCCCCOC[C@H](COc1cc(F)cc(C#N)c1)OP(=O)(O)OC[C@H]1O[C@@](C#N)(c2ccc3c(N)ncnn23)[C@H](O)[C@@H]1O [Example 39, ((2R,3S,4R,5R)-5-(4-aminopyrrolo[2,1-f][1,2,4]triazin-7-yl)-5-cyano-3,4-dihydroxytetrahydrofuran-2-yl)methyl ((R)-1-(3-cyano-5-fluorophenoxy)-3-(octadecyloxy)propan-2-yl) hydrogen phosphate]",EC50,[1],78 nM
same,EC50,SARS-CoV-2,190 nM
same,CC50 at 5 days,[2]; MT4 CC50 (nM),2800 nM
"CCCCCCCCCCCCCCCCCCO[C@H](COCc1ccccc1)COP(=O)(O)OC[C@H]1O[C@@](C#N)(c2ccc3c(N)ncnn23)[C@H](O)[C@@H]1O [Example 22, ((2R,3S,4R,5R)-5-(4-aminopyrrolo[2,1-f][1,2,4]triazin-7-yl)-5-cyano-3,4-dihydroxytetrahydrofuran-2-yl)methyl ((R)-3-(benzyloxy)-2-(octadecyloxy)propyl) hydrogen phosphate]",EC50,[1],150 nM
same,EC50,SARS-CoV-2,3900 nM
same,CC50 at 5 days,[2]; [3],9600 nM
CCCCCCCCCCCCCCCCCCOC[C@H](CO[P@](O)(=S)OC[C@H]1O[C@@](C#N)(c2ccc3c(N)ncnn23)[C@H](O)[C@@H]1O)OCc1cc(F)cc(C#N)c1 [Example 68],EC50,[1],120 nM
same,EC50,SARS-CoV-2,360 nM
same,CC50 at 5 days,[2]; [3],670 nM
"CCCCCCCCCCCCCCCCCCOC[C@H](COP(=O)(O)OC[C@H]1O[C@@](C#N)(c2ccc3c(N)ncnn23)[C@H](O)[C@@H]1O)Nc1ccccc1C(=O)O [Example 31, 2-(((2R)-1-(((((2R,3S,4R,5R)-5-(4-aminopyrrolo[2,1-f][1,2,4]triazin-7-yl)-5-cyano-3,4-dihydroxytetrahydrofuran-2-yl)methoxy)(hydroxy)phosphoryl)oxy)-3-(octadecyloxy)propan-2-yl)amino)benzoic acid]",EC50,[1],260 nM
same,EC50,SARS-CoV-2,6300 nM
same,CC50 at 5 days,[2]; MT4 CC50 (nM),38000 nM
"CCCCCCCCCCCCCCCCCOCCOP(=O)(O)OC[C@H]1O[C@@](C#N)(c2ccc3c(N)ncnn23)[C@H](O)[C@@H]1O [Example 60, [(2R,3S,4R,5R)-5-(4-aminopyrrolo[2,1-f][1,2,4]triazin-7-yl)-5-cyano-3,4-dihydroxy-tetrahydrofuran-2-yl]methyl 2-heptadecoxyethyl hydrogen phosphate]",EC50,[1],240 nM
same,EC50,SARS-CoV-2,2000 nM
same,CC50 at 5 days,[2]; MT4 CC50 (nM),4800 nM
"CCCCCCCCCCCCCCOCCOP(=O)(O)OC[C@H]1O[C@@](C#N)(c2ccc3c(N)ncnn23)[C@H](O)[C@@H]1O [Example 59, [(2R,3S,4R,5R)-5-(4-Aminopyrrolo[2,1-f][1,2,4]triazin-7-yl)-5-cyano-3,4-dihydroxy-tetrahydrofuran-2-yl]methyl 2-tetradecoxyethyl hydrogen phosphate]",EC50,[1],170 nM
same,EC50,SARS-CoV-2,10000 nM
same,CC50 at 5 days,[2]; MT4 CC50 (nM),16000 nM
"CCCCCCCCCCCCCCCCCCOC[C@H](COP(=O)(O)OC[C@H]1O[C@@](C#N)(c2ccc3c(N)ncnn23)[C@H](O)[C@@H]1O)N(C)C(=O)c1ccc(F)c(Cl)c1 [Example 4, ((2R,3S,4R,5R)-5-(4-aminopyrrolo[2,1-f][1,2,4]triazin-7-yl)-5-cyano-3,4-dihydroxytetrahydrofuran-2-yl)methyl ((R)-2-(3-chloro-4-fluoro-N-methylbenzamido)-3-(octadecyloxy)propyl) hydrogen phosphate]",EC50,[1],540 nM
same,EC50,SARS-CoV-2,9400 nM
same,CC50 at 5 days,[2]; MT4 CC50 (nM),13000 nM
"CCCCCCCCCCCCCCCCCCO[C@@H](C)[C@H](COP(=O)(O)OC[C@H]1O[C@@](C#N)(c2ccc3c(N)ncnn23)[C@H](O)[C@@H]1O)OCc1ccccc1 [Example 5, ((2R,3S,4R,5R)-5-(4-aminopyrrolo[2,1-f][1,2,4]triazin-7-yl)-5-cyano-3,4-dihydroxytetrahydrofuran-2-yl)methyl ((2S,3S)-2-(benzyloxy)-3-(octadecyloxy)butyl) hydrogen phosphate]",EC50,[1],50 nM
same,EC50,SARS-CoV-2,2500 nM
same,CC50 at 5 days,[2]; MT4 CC50 (nM),3400 nM
"CCCCCCCCCCCCCCC#CC[C@H](COP(=O)(O)OC[C@H]1O[C@@](C#N)(c2ccc3c(N)ncnn23)[C@H](O)[C@@H]1O)OCc1cc(F)cc(C#N)c1 [Example 74, ((2R,3S,4R,5R)-5-(4-aminopyrrolo[2,1-f][1,2,4]triazin-7-yl)-5-cyano-3,4-dihydroxytetrahydrofuran-2-yl)methyl ((R)-2-((3-cyano-5-fluorobenzyl)oxy)nonadec-4-yn-1-yl) hydrogen phosphate]",EC50,[1],24 nM
same,EC50,SARS-CoV-2,190 nM
same,CC50 at 5 days,[2]; MT4 CC50 (nM),300 nM
"CCCCCCCCCCCCCCCCCCC[C@H](COP(=O)(O)OC[C@H]1O[C@@](C#N)(c2ccc3c(N)ncnn23)[C@H](O)[C@@H]1O)OCc1ccccc1 [Example 72, ((2R,3S,4R,5R)-5-(4-aminopyrrolo[2,1-f][1,2,4]triazin-7-yl)-5-cyano-3,4-dihydroxytetrahydrofuran-2-yl)methyl ((R)-2-(benzyloxy)henicosyl) hydrogen phosphate]",EC50,[1],190 nM
same,EC50,SARS-CoV-2,1100 nM
same,CC50 at 5 days,[2]; MT4 CC50 (nM),3800 nM
"CCCCCCCCCCCCCCCCCCOC[C@H](COP(=O)(O)OC[C@H]1O[C@@](C#N)(c2ccc3c(N)ncnn23)[C@H](O)[C@@H]1O)N(C)Cc1ccccc1 [Example 2, ((2R,3S,4R,5R)-5-(4-aminopyrrolo[2,1-f][1,2,4]triazin-7-yl)-5-cyano-3,4-dihydroxytetrahydrofuran-2-yl)methyl ((R)-2-(benzyl(methyl)amino)-3-(octadecyloxy)propyl) hydrogen phosphate]",EC50,[1],5000 nM
same,EC50,SARS-CoV-2,10000 nM
same,CC50 at 5 days,[2]; MT4 CC50 (nM),25000 nM
"CCCCCCCCCCCCCCC#CC[C@H](COP(=O)(O)OC[C@H]1O[C@@](C#N)(c2ccc3c(N)ncnn23)[C@H](O)[C@@H]1O)OCc1ccc(C#N)c(F)c1 [Example 75, ((2R,3S,4R,5R)-5-(4-aminopyrrolo[2,1-f][1,2,4]triazin-7-yl)-5-cyano-3,4-dihydroxytetrahydrofuran-2-yl)methyl ((R)-2-((4-cyano-3-fluorobenzyl)oxy)nonadec-4-yn-1-yl) hydrogen phosphate]",EC50,[1],17 nM
same,EC50,SARS-CoV-2,72 nM
same,CC50 at 5 days,[2]; MT4 CC50 (nM),230 nM
"CCCCCCCCCCCCCCCCCCOC[C@H](COP(=O)(O)OC[C@H]1O[C@@](C#N)(c2ccc3c(N)ncnn23)[C@H](O)[C@@H]1O)NC(=O)c1ccccc1C#N [Example 58, ((2R,3S,4R,5R)-5-(4-aminopyrrolo[2,1-f][1,2,4]triazin-7-yl)-5-cyano-3,4-dihydroxytetrahydrofuran-2-yl)methyl ((R)-2-(2-cyanobenzamido)-3-(octadecyloxy)propyl) hydrogen phosphate]",EC50,[1],300 nM
same,EC50,SARS-CoV-2,5100 nM
same,CC50 at 5 days,[2]; MT4 CC50 (nM),43000 nM
"CCCCCCCCCCCCCCCCCCC[C@H](COP(=O)(O)OC[C@H]1O[C@@](C#N)(c2ccc3c(N)ncnn23)[C@H](O)[C@@H]1O)OCc1ccc(C#N)c(F)c1 [Example 71, ((2R,3S,4R,5R)-5-(4-aminopyrrolo[2,1-f][1,2,4]triazin-7-yl)-5-cyano-3,4-dihydroxytetrahydrofuran-2-yl)methyl ((R)-2-((4-cyano-3-fluorobenzyl)oxy)henicosyl) hydrogen phosphate]",EC50,[1],68 nM
same,EC50,SARS-CoV-2,79 nM
same,CC50 at 5 days,[2]; MT4 CC50 (nM),900 nM
"CCCCCCCCCCCCCCCCCCO[C@H](C)[C@H](COP(=O)(O)OC[C@H]1O[C@@](C#N)(c2ccc3c(N)ncnn23)[C@H](O)[C@@H]1O)OCc1ccccc1 [Example 8, ((2R,3S,4R,5R)-5-(4-aminopyrrolo[2,1-f][1,2,4]triazin-7-yl)-5-cyano-3,4-dihydroxytetrahydrofuran-2-yl)methyl ((2S,3R)-2-(benzyloxy)-3-(octadecyloxy)butyl) hydrogen phosphate]",EC50,[1],160 nM
same,EC50,SARS-CoV-2,2900 nM
same,CC50 at 5 days,[2]; MT4 CC50 (nM),1800 nM
"CCCCCCCCCCCCCCCCCCOC[C@H](COc1ccc(C#N)nn1)OP(=O)(O)OC[C@H]1O[C@@](C#N)(c2ccc3c(N)ncnn23)[C@H](O)[C@@H]1O [Example 46, ((2R,3S,4R,5R)-5-(4-aminopyrrolo[2,1-f][1,2,4]triazin-7-yl)-5-cyano-3,4-dihydroxytetrahydrofuran-2-yl)methyl ((R)-1-((6-cyanopyridazin-3-yl)oxy)-3-(octadecyloxy)propan-2-yl) hydrogen phosphate]",EC50,[1],26 nM
same,EC50,SARS-CoV-2,120 nM
same,CC50 at 5 days,[2]; MT4 CC50 (nM),420 nM
